From patent US20230131899A1, “INHIBITORS OF MICROBIALLY INDUCED AMYLOID” (Axial Therapeutics, Inc., priority 2020, published 2023)
Where two headings read alike, the source gives them in different places.

Molecular target: T1, E. coli CsgA (Escherichia coli, UniProt P28307)
T1 construct: made in house; host or cells: E. coli NEB 3016 slyD::kan, pET11d
Assay: In vitro ThioflavinT assay of CsgA aggregation (CsgA ThT Assay)
Type: biochemical
Conditions: CsgA 2 μM, white plates; for remaining activity at 25 µM: compound 25 μM; for remaining activity at 100 µM: compound 100 μM
Method in brief: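 Purified C-terminal His-tagged CsgA, monomerised by desalting and 30-kDa filtration, at 2-20 μM with 20-40 μM ThT in 50 mM potassium phosphate pH 7.3, 1% DMSO, compounds 3.125-200 uM; room temperature, fluorescence (ex 438/em 495 nm) read every 15 min. Background-subtracted signal expressed as percent inhibition versus vehicle at 6-6.5 or 8-9 h, or as percent control AUC.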

[1] = read-out: CsgA ThT Assay (2 μM CsgA) % Control Bmax 25 μM, activity range, class symbol
[2] = read-out: CsgA ThT Assay (2 μM CsgA) % Control Bmax 25 μM, mean Bmax as percentage of DMSO control
[3] = read-out: CsgA ThT Assay (2 μM CsgA) % Control Bmax 100 μM, activity range, class symbol
[4] = read-out: CsgA ThT Assay (2 μM CsgA) % Control Bmax 100 μM, mean Bmax as percentage of DMSO control

T1 sequence (P28307 23-151): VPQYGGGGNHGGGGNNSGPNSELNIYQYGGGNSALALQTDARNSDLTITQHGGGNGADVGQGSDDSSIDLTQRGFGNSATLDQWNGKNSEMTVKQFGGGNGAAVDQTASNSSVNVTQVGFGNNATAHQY

Row | Compound | remaining activity at 25 µM [1] [%] | remaining activity at 25 µM [2] [%] | remaining activity at 100 µM [3] [%] | remaining activity at 100 µM [4] [%]
1 | CCCCN1CC(C(=O)O)n2c1c(-c1cccc(C(F)(F)F)c1)c(Cc1cccc3ccccc13)c(Cl)c2=O (stereo not drawn) [Compound 163, 1-butyl-6-chloro-7-(naphthalen-1-ylmethyl)-5-oxo-8-(3-(trifluoromethyl)phenyl)-1,2,3,5-tetrahydroimidazo[1,2-a]pyridine-3-carboxylic acid] | 31 to 60 | 33 | 31 to 60 | 42
2 | CC(C)CN1CC(C(=O)O)n2c1c(-c1cccc(C(F)(F)F)c1)c(Cc1cccc3ccccc13)c(Cl)c2=O (stereo not drawn) [Compound 164, 6-chloro-1-isobutyl-7-(naphthalen-1-ylmethyl)-5-oxo-8-(3-(trifluoromethyl)phenyl)-1,2,3,5-tetrahydroimidazo[1,2-a]pyridine-3-carboxylic acid] | 31 to 60 | 52 | 31 to 60 | 42
3 | O=C(O)C1CN(CC2CCCC2)c2c(-c3cccc(C(F)(F)F)c3)c(Cc3cccc4ccccc34)c(Cl)c(=O)n21 (stereo not drawn) [Compound 167, 6-chloro-1-(cyclopentylmethyl)-7-(naphthalen-1-ylmethyl)-5-oxo-8-(3-(trifluoromethyl)phenyl)-1,2,3,5-tetrahydroimidazo[1,2-a]pyridine-3-carboxylic acid] | > 60 | 65 | 31 to 60 | 49
4 | N#Cc1cccc(CN2CC(C(=O)O)n3c2c(-c2cccc(C(F)(F)F)c2)c(Cc2cccc4ccccc24)c(Cl)c3=O)c1 (stereo not drawn) [Compound 168, 6-chloro-1-(3-cyanobenzyl)-7-(naphthalen-1-ylmethyl)-5-oxo-8-(3-(trifluoromethyl)phenyl)-1,2,3,5-tetrahydroimidazo[1,2-a]pyridine-3-carboxylic acid] | > 60 | 76 | 31 to 60 | 47
5 | O=C(O)C1CN(Cc2cccnc2)c2c(-c3cccc(C(F)(F)F)c3)c(Cc3cccc4ccccc34)c(Cl)c(=O)n21 (stereo not drawn) [Compound 169, 6-chloro-7-(naphthalen-1-ylmethyl)-5-oxo-1-(pyridin-3-ylmethyl)-8-(3-(trifluoromethyl)phenyl)-1,2,3,5-tetrahydroimidazo[1,2-a]pyridine-3-carboxylic acid] | > 60 | 77 | > 60 | 64
6 | O=C(O)C1CN(Cc2ccc(CO)cc2)c2c(-c3cccc(C(F)(F)F)c3)c(Cc3cccc4ccccc34)c(Cl)c(=O)n21 (stereo not drawn) [Compound 170, 6-chloro-1-(4-(hydroxymethyl)benzyl)-7-(naphthalen-1-ylmethyl)-5-oxo-8-(3-(trifluoromethyl)phenyl)-1,2,3,5-tetrahydroimidazo[1,2-a]pyridine-3-carboxylic acid] | > 60 | 62 | 31 to 60 | 38
7 | CCCN1CC(C(=O)O)n2c(c(-c3cccc(C(F)(F)F)c3)c(Cc3cccc4ccccc34)c(C(N)=O)c2=O)S1(=O)=O (stereo not drawn) [Compound 172, 7-carbamoyl-8-(naphthalen-1-ylmethyl)-6-oxo-2-propyl-9-(3-(trifluoromethyl)phenyl)-3,4-dihydro-2H,6H-pyrido[1,2-e][1,2,5]thiadiazine-4-carboxylic acid 1,1-dioxide] | 11 to 31 | 26 | 11 to 31 | 17
8 | CN(C)C(=O)c1c(Cc2cccc3ccccc23)c(-c2cccc(C(F)(F)F)c2)c2n(c1=O)C(C(=O)O)CN(C)S2(=O)=O (stereo not drawn) [Compound 173, 7-(dimethylcarbamoyl)-2-methyl-8-(naphthalen-1-ylmethyl)-6-oxo-9-(3-(trifluoromethyl)phenyl)-3,4-dihydro-2H,6H-pyrido[1,2-e] [1,2,5] thiadiazine-4-carboxylic acid 1,1-dioxide] | > 60 | 73 | 31 to 60 | 40
9 | O=C(O)C1CN(Cc2ccncc2)c2c(-c3cccc(C(F)(F)F)c3)c(Cc3cccc4ccccc34)c(Cl)c(=O)n21 (stereo not drawn) [Compound 174, 6-chloro-7-(naphthalen-1-ylmethyl)-5-oxo-1-(pyridin-4-ylmethyl)-8-(3-(trifluoromethyl)phenyl)-1,2,3,5-tetrahydroimidazo[1,2-a]pyridine-3-carboxylic acid] | > 60 | 77 | 31 to 60 | 60
10 | CC(C)N1CC(C(=O)O)n2c(c(-c3cccc(C(F)(F)F)c3)c(Cc3cccc4ccccc34)c(C(N)=O)c2=O)S1(=O)=O (stereo not drawn) [Compound 175, 7-carbamoyl-2-isopropyl-8-(naphthalen-1-ylmethyl)-6-oxo-9-(3-(trifluoromethyl)phenyl)-3,4-dihydro-2H,6H-pyrido[1,2-e][1,2,5]thiadiazine-4-carboxylic acid 1,1-dioxide] | 31 to 60 | 33 | 11 to 31 | 24
11 | NC(=O)c1c(Cc2cccc3ccccc23)c(-c2cccc(C(F)(F)F)c2)c2n(c1=O)C(C(=O)O)CN(C1CCCC1)S2(=O)=O (stereo not drawn) [Compound 176, 7-carbamoyl-2-cyclopentyl-8-(naphthalen-1-ylmethyl)-6-oxo-9-(3-(trifluoromethyl)phenyl)-3,4-dihydro-2H,6H-pyrido[1,2-e][1,2,5]thiadiazine-4-carboxylic acid 1,1-dioxide] | 11 to 31 | 25 | 11 to 31 | 24
12 | CCCCN1CC(C(=O)O)n2c(c(-c3cccc(C(F)(F)F)c3)c(Cc3cccc4ccccc34)c(C(N)=O)c2=O)S1(=O)=O (stereo not drawn) [Compound 177, 2-butyl-7-carbamoyl-8-(naphthalen-1-ylmethyl)-6-oxo-9-(3-(trifluoromethyl)phenyl)-3,4-dihydro-2H,6H-pyrido[1,2-e][1,2,5]thiadiazine-4-carboxylic acid 1,1-dioxide] | 31 to 60 | 32 | 11 to 31 | 21
13 | O=C(O)C1CN(CCc2ccccc2)c2c(-c3cccc(C(F)(F)F)c3)c(Cc3cccc4ccccc34)c(Cl)c(=O)n21 (stereo not drawn) [Compound 178, 6-chloro-7-(naphthalen-1-ylmethyl)-5-oxo-1-phenethyl-8-(3-(trifluoromethyl)phenyl)-1,2,3,5-tetrahydroimidazo[1,2-a]pyridine-3-carboxylic acid] | 31 to 60 | 57 | < 10 | 9
14 | CC(C)N1CC(C(=O)O)n2c1c(-c1cccc(C(F)(F)F)c1)c(Cc1cccc3ccccc13)c(Cl)c2=O (stereo not drawn) [Compound 179, 6-chloro-1-isopropyl-7-(naphthalen-1-ylmethyl)-5-oxo-8-(3-(trifluoromethyl)phenyl)-1,2,3,5-tetrahydroimidazo[1,2-a]pyridine-3-carboxylic acid] | > 60 | 65 | 31 to 60 | 48
15 | O=C(O)C1CN(CC2CCCCC2)c2c(-c3cccc(C(F)(F)F)c3)c(Cc3cccc4ccccc34)c(Cl)c(=O)n21 (stereo not drawn) [Compound 180, 6-chloro-1-(cyclohexylmethyl)-7-(naphthalen-1-ylmethyl)-5-oxo-8-(3-(trifluoromethyl)phenyl)-1,2,3,5-tetrahydroimidazo[1,2-a]pyridine-3-carboxylic acid] | > 60 | 65 | 11 to 31 | 21
16 | O=C(O)C1CN(Cc2ccccc2CO)c2c(-c3cccc(C(F)(F)F)c3)c(Cc3cccc4ccccc34)c(Cl)c(=O)n21 (stereo not drawn) [Compound 181, 6-chloro-1-(2-(hydroxymethyl)benzyl)-7-(naphthalen-1-ylmethyl)-5-oxo-8-(3-(trifluoromethyl)phenyl)-1,2,3,5-tetrahydroimidazo[1,2-a]pyridine-3-carboxylic acid] | 31 to 60 | 57 | 31 to 60 | 40
17 | O=C(O)C1CN(CC2CCOCC2)c2c(-c3cccc(C(F)(F)F)c3)c(Cc3cccc4ccccc34)c(Cl)c(=O)n21 (stereo not drawn) [Compound 182, 6-chloro-7-(naphthalen-1-ylmethyl)-5-oxo-1-((tetrahydro-2H-pyran-4-yl)methyl)-8-(3-(trifluoromethyl)phenyl)-1,2,3,5-tetrahydroimidazo[1,2-a]pyridine-3-carboxylic acid] | > 60 | 68 | > 60 | 61
18 | NC(=O)c1c(Cc2cccc3ccccc23)c(-c2cccc(C(F)(F)F)c2)c2n(c1=O)C(C(=O)O)CN(CCCO)S2(=O)=O (stereo not drawn) [Compound 184, 7-carbamoyl-2-(3-hydroxypropyl)-8-(naphthalen-1-ylmethyl)-6-oxo-9-(3-(trifluoromethyl)phenyl)-3,4-dihydro-2H,6H-pyrido[1,2-e][1,2,5]thiadiazine-4-carboxylic acid 1,1-dioxide] | 31 to 60 | 45 | 11 to 31 | 22
